The target of one data set is GLP-1R (Homo sapiens, UniProt P43220). Kind of data set: GLP-1 receptor-mediated cAMP induction, luciferase reporter gene antagonism assay. More on the design: host or cells: HEK 293. Particulars: antagonism of 0.05 nM GLP-1, HEK 293 cells. Type of data set: cell-based. Put shortly:
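HEK 293 cells cotransfected with human GLP-1 receptor and CRE-luciferase were serum-deprived 16 h, then given serial peptide dilutions followed by 0.05 nM GLP-1 and incubated 5 h at 37° C.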

[1] abbreviates: pH 7.7, Solubility [mg/mL] 80 mM AmBicarb pH7.7.
Setting [2] is: pH 7.7, Solubility 80 mM AmeBicarb pH7.7.
Where [3] appears, read: Table 3, amino acid substitution variants of Jant4-K40, read-out: Bioactivity IC50.

In general, solubility refers to how much of the substance goes into solution per volume. The low end stands for little dissolved substance, the high end for much dissolved substance.

In brackets after ≈: the same amount, converted by molar mass. Where two headings read alike, the source gives them in different places. Starred links: 1 amine or outer side, 2 acyl side, 3 side chain; linkers in the order of their positions; H or OH if unused. Non-standard residues stand in square brackets, D forms with d. Residues, ends and D or L forms follow the SMILES beside them. Groups on a side chain read outwards from the residue. *: point of attachment. γGlu = O=C(O)[C@H](CCC(=O)[*:2])N[*:1]; Palmitoyl = CCCCCCCCCCCCCCCC(=O)*; AEEA = NCCOCCOCC(=O)O

GLP-1R, sequence (P43220 24-463): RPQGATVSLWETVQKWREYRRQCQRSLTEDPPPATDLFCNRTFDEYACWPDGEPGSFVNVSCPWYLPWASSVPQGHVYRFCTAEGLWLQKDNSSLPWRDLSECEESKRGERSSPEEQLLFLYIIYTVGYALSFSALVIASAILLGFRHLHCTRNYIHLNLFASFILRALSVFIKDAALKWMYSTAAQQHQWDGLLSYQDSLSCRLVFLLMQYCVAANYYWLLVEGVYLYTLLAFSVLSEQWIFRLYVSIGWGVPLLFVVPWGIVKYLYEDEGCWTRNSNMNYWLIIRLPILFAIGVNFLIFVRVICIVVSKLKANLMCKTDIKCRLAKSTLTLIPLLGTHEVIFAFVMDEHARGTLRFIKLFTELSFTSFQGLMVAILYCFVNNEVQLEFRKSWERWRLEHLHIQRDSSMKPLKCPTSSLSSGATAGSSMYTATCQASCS

With `CCCCCCCCCCCCCCCC(=O)NCCCC[C@H](NC(=O)[C@H](CO)NC(=O)[C@@H]1CCCN1C(=O)[C@@H]1CCCN1C(=O)[C@@H]1CCCN1C(=O)[C@H](C)NC(=O)CNC(=O)[C@H](CO)NC(=O)[C@H](CO)NC(=O)[C@@H]1CCCN1C(=O)CNC(=O)CNC(=O)C(C)(C)NC(=O)[C@H](CCCCN)NC(=O)[C@H](CC(C)C)NC(=O)[C@H](Cc1c[nH]c2ccccc12)NC(=O)[C@H](C)NC(=O)[C@@H](NC(=O)[C@H](Cc1ccccc1)NC(=O)[C@H](CCC(=O)O)NC(=O)[C@H](CCCNC(=N)N)NC(=O)[C@@H](NC(=O)[C@H](C)NC(=O)[C@H](CCC(N)=O)NC(=O)[C@H](CCC(=O)O)NC(=O)[C@H](CCC(=O)O)NC(=O)[C@H](CC(C)C)NC(=O)[C@H](Cc1ccc(O)cc1)NC(=O)[C@H](CO)NC(=O)[C@H](CO)NC(=O)[C@@H](NC(=O)[C@@H](N)CC(=O)O)C(C)C)C(C)C)[C@@H](C)CC)C(N)=O` [SEQ ID NO: 43], the solubility in the data set “physchem” (setting [1]) is 18.9 mg/mL (≈ 5.21 mM); in the data set “physchem” (pH 7.7, Solubility [mg/mL] PBS pH7.7), 0.2 mg/mL (≈ 0.0552 mM). The IC50 at GLP-1R (Table 4, Aib variants of 9-40am Jant4 K40[C16], read-out: Bioactivity IC50) came to 13 nM. For the molecule `CCCCCCCCCCCCCCCC(=O)N[C@@H](CCC(=O)NCCOCCOCC(=O)NCCCC[C@H](NC(=O)[C@H](CO)NC(=O)[C@@H]1CCCN1C(=O)[C@@H]1CCCN1C(=O)[C@@H]1CCCN1C(=O)[C@H](C)NC(=O)CNC(=O)[C@H](CO)NC(=O)[C@H](CO)NC(=O)[C@@H]1CCCN1C(=O)CNC(=O)CNC(=O)[C@H](CCCNC(=N)N)NC(=O)[C@@H](NC(=O)[C@H](CC(C)C)NC(=O)[C@H](Cc1c[nH]c2ccccc12)NC(=O)[C@H](CCC(=O)O)NC(=O)[C@@H](NC(=O)[C@H](Cc1ccccc1)NC(=O)[C@H](CCC(=O)O)NC(=O)[C@H](CCCNC(=N)N)NC(=O)[C@@H](NC(=O)[C@H](C)NC(=O)[C@H](CCC(N)=O)NC(=O)[C@H](CCC(=O)O)NC(=O)[C@H](CCC(=O)O)NC(=O)[C@H](CC(C)C)NC(=O)[C@H](Cc1ccc(O)cc1)NC(=O)[C@H](CCCNC(=N)N)NC(=O)[C@H](CO)NC(=O)[C@@H](NC(=O)[C@@H](N)CC(=O)O)C(C)C)C(C)C)[C@@H](C)CC)C(C)C)C(=O)O)C(=O)O` [compound 16] (H-DVSRYLEEQAVREFIEWLVRGGPSSGAPPPSK([AEEA-γGlu-Palmitoyl])-OH; N-terminus assumed), the solubility in the data set “physchem” (setting [2]) was above 20 mg/mL. At GLP-1R (setting [3]), the IC50 was 18 nM. With `CCCCCCCCCCCCCCCC(=O)N[C@@H](CCC(=O)NCCOCCOCC(=O)NCCOCCOCC(=O)NCCCC[C@H](NC(=O)[C@H](CO)NC(=O)[C@@H]1CCCN1C(=O)[C@@H]1CCCN1C(=O)[C@@H]1CCCN1C(=O)[C@H](C)NC(=O)CNC(=O)[C@H](CO)NC(=O)[C@H](CO)NC(=O)[C@@H]1CCCN1C(=O)CNC(=O)CNC(=O)[C@H](CCCCN)NC(=O)[C@@H](NC(=O)[C@H](CC(C)C)NC(=O)[C@H](Cc1c[nH]c2ccccc12)NC(=O)[C@H](C)NC(=O)[C@@H](NC(=O)[C@H](Cc1ccccc1)NC(=O)[C@H](CCC(=O)O)NC(=O)[C@H](CCCNC(=N)N)NC(=O)[C@@H](NC(=O)[C@H](C)NC(=O)[C@H](CCC(N)=O)NC(=O)[C@H](CCC(=O)O)NC(=O)[C@H](CCC(=O)O)NC(=O)[C@H](CC(C)C)NC(=O)[C@H](Cc1ccc(O)cc1)NC(=O)[C@H](CO)NC(=O)[C@H](CO)NC(=O)[C@@H](NC(=O)[C@@H](N)CC(=O)O)C(C)C)C(C)C)[C@@H](C)CC)C(C)C)C(N)=O)C(=O)O` [compound 48] (H-DVSSYLEEQAVREFIAWLVKGGPSSGAPPPSK([AEEA-AEEA-γGlu-Palmitoyl])-NH2; N-terminus assumed), the solubility in the data set “physchem” (setting [1]) stood at 9 mg/mL (≈ 2.22 mM). For the same molecule, at GLP-1R (Table 2, C16 linker variants of 9-40amide Jant4 K40[X], read-out: Biactivity IC50), the IC50 stood at 9 nM. Molecule `CCCCCCCCCCCCCCCC(=O)NCCCC[C@H](NC(=O)[C@H](CO)NC(=O)[C@@H]1CCCN1C(=O)[C@@H]1CCCN1C(=O)[C@@H]1CCCN1C(=O)[C@H](C)NC(=O)CNC(=O)[C@H](CO)NC(=O)[C@H](CO)NC(=O)[C@@H]1CCCN1C(=O)CNC(=O)CNC(=O)[C@H](CCCCN)NC(=O)[C@@H](NC(=O)[C@H](CC(C)C)NC(=O)[C@H](Cc1c[nH]c2ccccc12)NC(=O)[C@H](C)NC(=O)[C@@H](NC(=O)[C@H](Cc1ccccc1)NC(=O)[C@H](CCC(=O)O)NC(=O)[C@H](CCCNC(=N)N)NC(=O)[C@H](NC(=O)[C@H](C)NC(=O)[C@H](CCC(N)=O)NC(=O)[C@H](CCC(=O)O)NC(=O)[C@H](CCC(=O)O)NC(=O)[C@H](CC(C)C)NC(=O)[C@H](Cc1ccc(O)cc1)NC(=O)[C@H](CO)NC(=O)[C@H](CO)NC(=O)[C@@H](NC(=O)[C@@H](N)CC(=O)O)C(C)C)C(C)C)[C@@H](C)CC)C(C)C)C(N)=O` [compound 50] (H-DVSSYLEEQA[dV]REFIAWLVKGGPSSGAPPPSK(Palmitoyl)-NH2) showed a solubility in “physchem” (pH 7.7, Solubility [mg/mL] 80 mM/AmBicarb pH7.7) above 20 mg/mL. At GLP-1R (Table 5, d-AA variants of 9-40am Jant4 K40[C16], read-out: Bioactivity KC50), the IC50 was determined as 124 nM. In the data set “physchem” (setting [2]), `CCCCCCCCCCCCCCCC(=O)NCCCC[C@H](NC(=O)[C@H](CO)NC(=O)[C@@H]1CCCN1C(=O)[C@@H]1CCCN1C(=O)[C@@H]1CCCN1C(=O)[C@H](C)NC(=O)CNC(=O)[C@H](CO)NC(=O)[C@H](CO)NC(=O)[C@@H]1CCCN1C(=O)CNC(=O)CNC(=O)[C@H](CCCNC(=N)N)NC(=O)[C@@H](NC(=O)[C@H](CC(C)C)NC(=O)[C@H](Cc1c[nH]c2ccccc12)NC(=O)[C@H](C)NC(=O)[C@@H](NC(=O)[C@H](Cc1ccccc1)NC(=O)[C@H](CCC(=O)O)NC(=O)[C@H](CCCNC(=N)N)NC(=O)[C@@H](NC(=O)[C@H](C)NC(=O)[C@H](CCC(N)=O)NC(=O)[C@H](CCC(=O)O)NC(=O)[C@H](CCC(=O)O)NC(=O)[C@H](CC(C)C)NC(=O)[C@H](Cc1ccc(O)cc1)NC(=O)[C@H](CO)NC(=O)[C@H](CO)NC(=O)[C@@H](NC(=O)[C@@H](N)CC(=O)O)C(C)C)C(C)C)[C@@H](C)CC)C(C)C)C(N)=O` [compound 69] (H-DVSSYLEEQAVREFIAWLVRGGPSSGAPPPSK(Palmitoyl)-NH2) displayed a solubility of 13.7 mg/mL (≈ 3.73 mM). Also, on GLP-1R (setting [3]), the IC50 worked out at 16 nM.

In turn, `CCCCCCCCCCCCCCCC(=O)NCCCC[C@H](NC(=O)[C@H](CO)NC(=O)[C@@H]1CCCN1C(=O)[C@@H]1CCCN1C(=O)[C@@H]1CCCN1C(=O)[C@H](C)NC(=O)CNC(=O)[C@H](CO)NC(=O)[C@H](CO)NC(=O)[C@@H]1CCCN1C(=O)CNC(=O)CNC(=O)[C@H](CCCNC(=N)N)NC(=O)[C@@H](NC(=O)[C@H](CC(C)C)NC(=O)[C@H](Cc1c[nH]c2ccccc12)NC(=O)[C@H](CCC(=O)O)NC(=O)[C@@H](NC(=O)[C@H](Cc1ccccc1)NC(=O)[C@H](CCC(=O)O)NC(=O)[C@H](CCCNC(=N)N)NC(=O)[C@@H](NC(=O)[C@H](C)NC(=O)[C@H](CCC(N)=O)NC(=O)[C@H](CCC(=O)O)NC(=O)[C@H](CCC(=O)O)NC(=O)[C@H](CC(C)C)NC(=O)[C@H](Cc1ccc(O)cc1)NC(=O)[C@H](CO)NC(=O)[C@H](CO)NC(=O)[C@@H](NC(=O)[C@@H](N)CC(=O)O)C(C)C)C(C)C)[C@@H](C)CC)C(C)C)C(N)=O` [compound 70] (H-DVSSYLEEQAVREFIEWLVRGGPSSGAPPPSK(Palmitoyl)-NH2) showed a solubility in the data set “physchem” (setting [2]) above 20 mg/mL. In “physchem” (setting [2]), `CCCCCCCCCCCCCCCC(=O)NCCCC[C@H](NC(=O)[C@H](CO)NC(=O)[C@@H]1CCCN1C(=O)[C@@H]1CCCN1C(=O)[C@@H]1CCCN1C(=O)[C@H](C)NC(=O)CNC(=O)[C@H](CO)NC(=O)[C@H](CO)NC(=O)[C@@H]1CCCN1C(=O)CNC(=O)CNC(=O)[C@H](CCCNC(=N)N)NC(=O)[C@@H](NC(=O)[C@H](CC(C)C)NC(=O)[C@H](Cc1c[nH]c2ccccc12)NC(=O)[C@H](C)NC(=O)[C@@H](NC(=O)[C@H](Cc1ccccc1)NC(=O)[C@H](CCC(=O)O)NC(=O)[C@H](CCCNC(=N)N)NC(=O)[C@@H](NC(=O)[C@H](C)NC(=O)[C@H](CCC(N)=O)NC(=O)[C@H](CCC(=O)O)NC(=O)[C@H](CCC(=O)O)NC(=O)[C@H](CC(C)C)NC(=O)[C@H](Cc1ccc(O)cc1)NC(=O)[C@H](CCCNC(=N)N)NC(=O)[C@H](CO)NC(=O)[C@@H](NC(=O)[C@@H](N)CC(=O)O)C(C)C)C(C)C)[C@@H](C)CC)C(C)C)C(N)=O` [compound 73] (H-DVSRYLEEQAVREFIAWLVRGGPSSGAPPPSK(Palmitoyl)-NH2; N-terminus assumed) yielded a solubility below 0.1 mg/mL. Besides, the IC50 on GLP-1R (setting [3]) was determined as 27 nM.

In the case of `CCCCCCCCCCCCCCCC(=O)N[C@@H](CCC(=O)NCCOCCOCC(=O)NCCCC[C@H](NC(=O)[C@H](CO)NC(=O)[C@@H]1CCCN1C(=O)[C@@H]1CCCN1C(=O)[C@@H]1CCCN1C(=O)[C@H](C)NC(=O)CNC(=O)[C@H](CO)NC(=O)[C@H](CO)NC(=O)[C@@H]1CCCN1C(=O)CNC(=O)CNC(=O)[C@@H](NC(=O)[C@H](CCCNC(=N)N)NC(=O)[C@H](CC(C)C)NC(=O)[C@H](Cc1c[nH]c2ccccc12)NC(=O)[C@H](CCC(=O)O)NC(=O)[C@@H](NC(=O)[C@H](Cc1ccccc1)NC(=O)[C@H](CCC(=O)O)NC(=O)[C@H](CCCNC(=N)N)NC(=O)[C@@H](NC(=O)[C@H](C)NC(=O)[C@H](CCC(N)=O)NC(=O)[C@H](CCC(=O)O)NC(=O)[C@H](CCC(=O)O)NC(=O)[C@H](CC(C)C)NC(=O)[C@H](Cc1ccc(O)cc1)NC(=O)[C@H](CO)NC(=O)[C@H](CO)NC(=O)[C@@H](NC(=O)[C@@H](N)CC(=O)O)C(C)C)C(C)C)[C@@H](C)CC)C(C)C)C(=O)O)C(=O)O` [compound 79], the solubility in “physchem” (setting [2]) was above 20 mg/mL.

Values taken from US20240058422A1, “GLUCAGON-LIKE PEPTIDE-1 RECEPTOR ANTAGONISTS” (INDIANA UNIVERSITY RESEARCH AND TECHNOLOGY CORPORATION, priority 2022, published 2024).
